Test results published in patent publication US7446122B2, “Substituted indole derivatives” (Cephalon, Inc., priority 2003, dated 2008).

How the values were obtained:
[1] = system: prostate cancer cell line (LNCaP); assay: Cell cytotoxicity, MTT assay, LNCaP; format: cell-based; settings: Homo sapiens, 72 h, three days incubation
Procedure: (§1) Normal prostate cells (PREC, Cambrex East Rutherford N.J.), prostate cancer cell line (LNCaP, ATCC), PBL (peripheral blood leukocytes-buffy coat San Diego Blood Bank), and primary CLL cells were incubated for one to two days in RPMI-1640 and 10% FBS (fetal bovine serum). They were plated in 96-well plates at 100,000 cells/well. Titrated concentrations of the compound to be tested were added to the culture medium. The cells were incubated three days at 37° C., 5% CO2. Viability of the cells was assayed by standard MTT assay. Each drug concentration was done in duplicate. MTT assay: 10 μl of 12 mM 3,[4,5-dimethylthiazol-2-yl]-2,5-diphenyltetrazolium bromide (MTT) (SIGMA) was added to each well. The cells were incubated at 37° C., 5% CO2 for 4 hours. 100 μl of 20% SDS, 0.015M HCl was added to each well and the cells were incubated overnight. The plates were read at absorbance 595 nm.

[2] = molecular target: T1, Cyclooxygenase-2 (human recombinant, expressed in Sf9 cell) (Homo sapiens, UniProt P35354); assay: Cox-2 assay: human recombinant cyclooxygenase-2, PGE2 by EIA; format: biochemical; settings: human recombinant enzyme; compounds are screened at 10 μM
T1 construct: purchased Cayman 60122; host or cells: Sf9 cell
T1 sequence (P35354 18-604): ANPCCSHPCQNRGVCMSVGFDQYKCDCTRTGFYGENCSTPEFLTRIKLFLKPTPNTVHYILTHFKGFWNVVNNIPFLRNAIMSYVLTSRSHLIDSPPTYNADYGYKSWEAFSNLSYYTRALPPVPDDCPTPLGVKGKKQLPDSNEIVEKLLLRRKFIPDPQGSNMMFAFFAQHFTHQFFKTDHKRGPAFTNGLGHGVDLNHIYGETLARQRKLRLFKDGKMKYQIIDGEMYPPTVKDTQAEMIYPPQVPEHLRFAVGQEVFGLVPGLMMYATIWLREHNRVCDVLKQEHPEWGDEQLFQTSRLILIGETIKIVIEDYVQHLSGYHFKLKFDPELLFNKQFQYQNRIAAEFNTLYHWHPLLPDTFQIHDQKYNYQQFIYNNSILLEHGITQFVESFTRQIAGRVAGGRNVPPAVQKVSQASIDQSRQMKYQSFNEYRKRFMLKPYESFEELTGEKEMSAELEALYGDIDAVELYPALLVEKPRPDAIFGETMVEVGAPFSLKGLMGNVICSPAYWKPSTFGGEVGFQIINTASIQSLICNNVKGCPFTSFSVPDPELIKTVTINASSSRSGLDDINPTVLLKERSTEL
Procedure: Test compound and/or vehicle is pre-incubated with 0.11 U cyclooxygenase-2, 1 mM reduced glutathione (GSH), 500 μM phenol and 1 μM hematin for 15 minutes at 37° C. The reaction is initiated by addition of 0.3 μM arachidonic acid as substrate in Tris-HCl pH 7.7 and terminated after a 5 minute incubation at 37° C. by addition of 1N HCl. Following centrifugation, substrate conversion to PGE2 is measured by an Amersham EIA kit. Compounds are screened at 10 μM. […] J. Physiol.

COX-1 = molecular target: T2, COX-1 (Homo sapiens, UniProt P23219); assay: Cox-1 assay: PGE2 formation in human platelets; format: cell-based; settings: compounds are screened at 10 μM
T2 construct: endogenous in cells; host or cells: human platelets
T2 sequence (P23219 24-599): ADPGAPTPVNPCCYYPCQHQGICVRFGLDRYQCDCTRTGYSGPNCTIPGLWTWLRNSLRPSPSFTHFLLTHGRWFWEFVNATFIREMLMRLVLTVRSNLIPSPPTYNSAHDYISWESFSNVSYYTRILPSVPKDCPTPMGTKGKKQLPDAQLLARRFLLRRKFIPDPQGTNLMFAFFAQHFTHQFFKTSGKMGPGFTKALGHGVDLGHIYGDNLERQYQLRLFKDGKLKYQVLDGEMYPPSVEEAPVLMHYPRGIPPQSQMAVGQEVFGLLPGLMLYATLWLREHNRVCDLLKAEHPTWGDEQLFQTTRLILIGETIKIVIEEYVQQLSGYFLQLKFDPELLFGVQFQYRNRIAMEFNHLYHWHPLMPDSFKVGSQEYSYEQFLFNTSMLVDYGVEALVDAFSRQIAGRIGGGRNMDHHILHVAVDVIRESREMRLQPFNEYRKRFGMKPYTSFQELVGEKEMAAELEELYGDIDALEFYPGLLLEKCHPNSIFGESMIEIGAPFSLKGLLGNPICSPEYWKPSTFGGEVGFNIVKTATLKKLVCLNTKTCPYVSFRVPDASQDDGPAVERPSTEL
Procedure: Test compound and/or vehicle is incubated with human platelets (10^8/ml) containing the phospholipase inhibitor MLnFP (100 μM) for 15 minutes at 37° C. Arachidonic acid (100 μM) is then added for a further 15 minute incubation period. The reaction is stopped by addition of 1 N HCl and neutralized with 1N NaOH. PGE2 levels in the supernatant are determined using the Amersham EIA kit. […]

[3] = system: PBL (peripheral blood leukocytes); assay: Cell cytotoxicity, MTT assay, PBL; format: cell-based; settings: Leukocyte, 72 h, three days incubation
Procedure: as §1

primary CLL cells = assay: Cell cytotoxicity, MTT assay, primary CLL cells; format: cell-based; settings: 72 h, three days incubation
Procedure: as §1

[4] = system: Daudi human Burkitt Lymphoma derived tumors; assay: Daudi lymphoma murine xenograft model, efficacy; format: in vivo, male SCID mice; settings: for mean tumor volume at termination of the study: daily Monday to Friday for two weeks, control 1583 mm^3
Procedure: Male SCID mice, 6-8 weeks of age, obtained from Simonsen Laboratories, Inc. (Gilroy, Calif.) were housed in groups of five.
The Daudi human Burkitt Lymphoma cells were obtained from American Type Culture Collection and were inoculated subcutaneously (1.0×10^7 cells/mouse) on the flanks of SCID mice. After the tumors reached approximately 100 mm^3 treatment was initiated.
Body weights and tumor volume of all mice were measured and recorded twice weekly. Tumors were measured in three dimensions and volume calculated using the formula: […]. Time for the tumors (days) to grow to 4× and 8× the initial volume at dosing were assessed. Study compounds were administered at 125 or 250 mg/kg/day (M-F) via oral gavage until the end of the study.
The efficacy of chlorambucil (2 and 3 mg/kg/d), (R-etodoalc) (400 mg/kg/d) and compound 47 (250 mg/kg/d), compound 26 (250 mg/kg/d), and compound 1 (125 mg/kg/d) against Daudi derived tumors in male SCID mice were studied. R-etodolac and compounds 1, 26 and 47 were prepared in sesame oil. Both chlorambucil (ip, 0.1 ml) and compounds of the invention (per os [p.o.], 0.31 ml) were dosed daily (Monday to Friday) for two weeks. SDX-101 (0.31 ml) was dosed p.o. daily until the end of the study. […] However, all treated mice recovered after Day 2 and maintained their weights. There was no body weight loss observed in other treatment groups. At termination of the study, the control group mean tumor volume was 1583 mm^3. The mean tumor volume of chlorambucil treated groups were 864 and 766 mm^3 with 2 and 3 mg/kg/d chlorambucil treatment, respectively. The mean tumor volume of R-etodolac and compounds 1, […] and 47 were 802, 996, 1011, and 1157 mm^3 with compounds 47, 36, 1 and R-etodolac treatment, respectively. […] At termination of the study, tumor samples along with liver, kidney, and spleen samples from each group were collected and fixed in 10% buffered formalin for histopathology.

CCC1(CCO)OCCc2c1[nH]c1c(C(C)C)cc(CCCO)cc21 (stereo not drawn) [Compound 57, 3-(1-ETHYL-1,3,4,9-TETRAHYDRO-1-(2-HYDROXYETHYL)-8-ISOPROPYLPYRANO[3,4-B]INDOL-6-YL)PROPAN-1-OL]
IC50 [1]: 110 µM

CCc1cc(-c2cc3ccccc3s2)cc2c3c([nH]c12)C(CC)(CCO)OCC3 (stereo not drawn) [Compound 52]
inhibition at 10 µM [2]: 97% | inhibition at 10 µM (COX-1): 78% | IC50 [1]: 9 µM

CCc1cccc2c3c([nH]c12)C1(CCC(CO)CC1)OCC3 (stereo not drawn) [Compound 34, [8′-ETHYL-4′,9′-DIHYDRO-3′H-SPIRO(CYCLOHEXANE-1,1′-PYRANO[3,4-b]INDOL)-4-YL]-METHANOL]
IC50 [1]: 20 µM

CCC1(CCO)OCCc2c1[nH]c1c(C(C)C)cc(CCC(=O)O)cc21 (stereo not drawn) [Compound 56, 3-(1-ETHYL-1,3,4,9-TETRAHYDRO-1-(2-HYDROXYETHYL)-8-ISOPROPYLPYRANO[3,4-b]INDOL-6-YL)PROPANOIC ACID]
IC50 [1]: 235 µM

CCc1cc(-c2ccc(C)cc2)cc2c3c([nH]c12)C(CC)(CCO)OCC3 (stereo not drawn) [Compound 53]
inhibition at 10 µM [2]: 96% | inhibition at 10 µM (COX-1): 90% | IC50 [1]: 11 µM

CCC1(CCO)OCCc2c1[nH]c1c(C(C)C)cc(Br)cc21 (stereo not drawn) [Compound 54, 2-(6-BROMO-1-ETHYL-1,3,4,9-TETRAHYDRO-8-ISOPROPYLPYRANO[3,4-b]INDOL-1-yl)ETHANOL]
IC50 [1]: 7 µM

CCC1(CCO)OCCc2c1[nH]c1cccc(Cl)c21 (stereo not drawn) [Compound 38, 2-(5-CHLORO-1-ETHYL-1,3,4,9-TETRAHYDRO-PYRANO[3,4-b]INDOL-1-YL)-ETHANOL]
IC50 [1]: 23 µM | IC50 [3]: 73 µM

CCC1(CCO)OCCc2c1[nH]c1ccc(F)cc21 (stereo not drawn) [Compound 40, 2-(1-ETHYL-6-FLUORO-1,3,4,9-TETRAHYDRO-PYRANO[3,4-b]INDOL-1-YL)-ETHANOL]
IC50 [1]: 80 µM | IC50 (primary CLL cells): 185 µM

CCCC1(CCO)OCCc2c1[nH]c1c(CC)cccc21 (stereo not drawn) [Compound 30, 2-(8-ETHYL-1-PROPYL-1,3,4,9-TETRAHYDRO-PYRANO[3,4-b]INDOL-1-YL)-ETHANOL]
IC50 [1]: 100 µM

CCc1c(Br)ccc2c3c([nH]c12)C(CC)(CCO)OCC3 (stereo not drawn) [Compound 51, 2-(7-BROMO-1,8-DIETHYL-1,3,4,9-TETRAHYDROPYRANO[3,4-b]INDOL-1-YL)ETHANOL]
IC50 [1]: 10 µM

CCC1(CCO)OCCc2c1[nH]c1c(Cl)cc(Cl)cc21 (stereo not drawn) [Compound 46, 2-(6,8-DICHLORO-1-ETHYL-1,3,4,9-TETRAHYDRO-PYRANO[3,4-b]INDOL-1-YL)-ETHANOL]
IC50 [1]: 18 µM | IC50 [3]: 20 µM

CCC1(CCO)OCCc2c1[nH]c1c(F)cccc21 (stereo not drawn) [Compound 26, 2-(1-ETHYL-8-FLUORO-1,3,4,9-TETRAHYDRO-PYRANO[3,4-b]INDOL-1-YL)-ETHANOL]
IC50 [1]: 95 µM

CCC1(CCO)OCCc2c1[nH]c1c(C(F)(F)F)cccc21 (stereo not drawn) [Compound 37, 2-(1-ETHYL-8-TRIFLUOROMETHYL-1,3,4,9-TETRAHYDRO-PYRANO[3,4-b]INDOL-1-YL)-ETHANOL]
IC50 [1]: 60 µM

CCC1(CCO)OCCc2c1[nH]c1cc(Cl)ccc21 (stereo not drawn) [Compound 44, 2-(7-CHLORO-1-ETHYL-1,3,4,9-TETRAHYDRO-PYRANO[3,4-b]INDOL-1-YL)-ETHANOL]
IC50 [1]: 60 µM

CCc1cccc2c3c([nH]c12)C(CC)(CC(=O)NC)OCC3 (stereo not drawn) [Compound 33]
IC50 [1]: 132 µM | IC50 (primary CLL cells): 98 µM

CCc1cccc2c3c([nH]c12)C(CC)(CC(=O)N(C)C)OCC3 (stereo not drawn) [Compound 48]
IC50 [1]: 60 µM | IC50 (primary CLL cells): 240 µM

CCc1cc(-c2ccc3c(c2)OCO3)cc2c3c([nH]c12)C(CC)(CCO)OCC3 (stereo not drawn) [Compound 9]
inhibition at 10 µM [2]: 90% | inhibition at 10 µM (COX-1): 88% | IC50 [1]: 10 µM

CCC1(CCO)OCCc2c1[nH]c1ccccc21 (stereo not drawn) [Compound 22, (1-ETHYL-1,3,4,9-TETRAHYDRO-PYRANO[3,4-b]INDOL-1-YL)-ETHANOL]
IC50 [1]: 163 µM

CCC1(CCO)OCCc2c1[nH]c1cccc(F)c21 (stereo not drawn) [Compound 39, 2-(1-ETHYL-5-FLUORO-1,3,4,9-TETRAHYDRO-PYRANO[3,4-b]INDOL-1-YL)-ETHANOL]
IC50 [1]: 46 µM | IC50 [3]: 120 µM

CCOC(=O)CCc1cc(C(C)C)c2[nH]c3c(c2c1)CCOC3(CC)CCO (stereo not drawn) [Compound 55, ETHYL 3-(1-ETHYL-1,3,4,9-TETRAHYDRO-1-(2-HYDROXYETHYL)-8-ISOPROPYLPYRANO[3,4-B]INDOL-6-YL)PROPANOATE]
IC50 [1]: 18 µM

CCc1cc(-c2ccc(F)cc2)cc2c3c([nH]c12)C(CC)(CCO)OCC3 (stereo not drawn) [Compound 7]
inhibition at 10 µM [2]: 99% | inhibition at 10 µM (COX-1): 94% | IC50 [1]: 12 µM

CCC1(CCO)OCCc2c1[nH]c1ccc(OC)cc21 (stereo not drawn) [Compound 23, 2-(1-ETHYL-6-METHOXY-1,3,4,9-TETRAHYDRO-PYRANO[3,4-b]INDOL-1-YL)-ETHANOL]
IC50 [1]: 70 µM

CCc1cccc2c3c([nH]c12)C(CCO)(c1ccccc1)OCC3 (stereo not drawn) [Compound 32, 2-(8-ETHYL-1-PHENYL-1,3,4,9-TETRAHYDRO-PYRANO[3,4-b]INDOL-1-YL)-ETHANOL]
IC50 [1]: 15 µM | IC50 (primary CLL cells): 250 µM

CCC1(CCO)OCCc2c1[nH]c1c(Br)cccc21 (stereo not drawn) [Compound 28, 2-(8-BROMO-1-ETHYL-1,3,4,9-TETRAHYDRO-PYRANO[3,4-b]INDOL-1-YL)-ETHANOL]
IC50 [1]: 25 µM

O=C(O)CCCc1ccc(N(CCCl)CCCl)cc1 [Chlorambucil, chlorambucil, reference compound]
mean tumor volume at termination of the study ([4]; chlorambucil 2 mg/kg/d ip): 864 mm^3 | mean tumor volume at termination of the study ([4]; chlorambucil 3 mg/kg/d ip): 766 mm^3 | 4× Growth ([4]; time for the tumors to grow to 4× the initial volume at dosing, control 8.9 d): 16 days | 8× Growth ([4]; time for the tumors to grow to 8× the initial volume at dosing, control 14.5 d): 21 days

CCC1(CCO)OCCc2c1[nH]c1cc(F)ccc21 (stereo not drawn) [Compound 43, 2-(1-ETHYL-7-FLUORO-1,3,4,9-TETRAHYDRO-PYRANO[3,4-b]INDOL-1-YL)-ETHANOL]
IC50 [1]: 77 µM

CCC1(CCO)OCCc2c1[nH]c1ccc(Cl)cc21 (stereo not drawn) [Compound 41, 2-(6-CHLORO-1-ETHYL-1,3,4,9-TETRAHYDRO-PYRANO[3,4-b]INDOL-1-YL)-ETHANOL]
IC50 [1]: 51 µM | IC50 (primary CLL cells): 110 µM

CCc1cccc2c3c([nH]c12)C(CCO)(C(C)C)OCC3 (stereo not drawn) [Compound 31, 2-(8-ETHYL-1-ISOPROPYL-1,3,4,9-TETRAHYDRO-PYRANO[3,4-b]INDOL-1-YL)-ETHANOL]
IC50 [1]: 37 µM | IC50 (primary CLL cells): 244 µM
